Experimental data from publication PMC6941823, “A dispensable paralog of succinate dehydrogenase subunit C mediates standing resistance towards a subclass of SDHI fungicides in Zymoseptoria tritici” (PLoS Pathogens, 2019).
Like-named read-outs stand apart in the source and are kept apart here.

How the values were obtained:
[1] = target: altC-SQR (altC) of D024 SDHC1 KO mitochondria (Zymoseptoria tritici, UniProt A0A1X7RQW2+F9X9V6+O42772); experiment: Succinate-quinone (SQR) SDHI sensitivity assay on purified mitochondria, 06STD024 SDHC1 KO; format: biochemical; conditions: for RF (resistance factor), D024 SDHC1 KO (altC): IC50 ratio compared to IPO323 values; for IC50: mitochondria of 06STD024 ZtSDHC1 deletion mutant (pure altC-SQR), mean of three ± SD
Description: (§1) Succinate-ubiquinone oxidoreductase (SQR) inhibition assays were performed on mitochondrial extracts from a panel of strains that were (i) either carrying a unique C-subunit encoding gene (ZtSDHC1, ZtSDHC1_A84I or Zt-SDHC3), or (ii) carrying two C-subunit encoding genes ZtSDHC1 and ZtSDHC3 (Table 1).
(§2) Biomass production, mitochondrial extraction and purification were performed as described in [14]. Succinate: ubiquinone/DCPIP sensitivity tests were performed as described in [14] with minor modification.

[2] = test system: SQR (SDHC / altC) of IPO323 pTet::SDHC3 transformant, induced; experiment: Succinate-quinone (SQR) SDHI sensitivity assay on purified mitochondria, IPO323 pTet::SDHC3 induced; format: biochemical, Zymoseptoria tritici; conditions: for RF (resistance factor), pTet Induced (SDHC / altC): IC50 ratio compared to IPO323 values; for IC50: IPO323 pTet::SDHC3 transformant grown in the absence of doxycycline, mean of three ± SD
Description: as §1, §2

[3] = test system: Zymoseptoria tritici field and genetically modified strains; experiment: Liquid culture assay for fungicide sensitivity determination; format: cell-based; conditions: liquid culture sensitivity, read-out: EC50 (nM) Mean
Description: Sensitivity towards commercial fungicides was determined for a set of 99 SHA-SDHI-naïve Z. tritici field isolates sampled in Europe between 2006 and 2009. The EC50 of these isolates was determined in liquid growth assays and the data obtained compared for each possible pair of SDHI fungicides (cross-resistance (XR) plots, Fig 1). […] Comparative succinate-quinone reductase (SQR) enzyme inhibition tests were performed with mitochondria extracted from a panel of SHA-SDHIs tolerant and sensitive isolates.
In order to characterize in more depth the mechanisms driving sensitivity differences across the isolates, a subset of eight isolates carrying the ZtSDHC3 gene was analyzed for their sensitivity to SDHIs, alt-SDHC expression and splicing patterns. Liquid culture growth sensitivity tests were performed to determine EC50s for this set of isolates towards a wide range of commercial and research SDHIs (S5 Table).
Pre-culture of the inoculum and fungicide sensitivity tests were performed following previously described procedures. Different ranges of inhibitor concentrations were used for population monitoring and for the detailed phenotyping of a selected set of individual field isolates and genetically modified strains. For fungicide sensitivity monitoring of European field populations, final inhibitors concentrations were between 100 mg.L^-1 and 0.0001 mg.L^-1 with uniform 10x dilution steps (7 inhibitor concentrations + DMSO control). For refined sensitivity analysis of a smaller panel of isolates final inhibitor concentrations ranged between 0.5 mM and 0.47 nM with uniform 4x dilution factor steps (11 inhibitor concentrations+ DMSO control).

[4] = target: SQR of 06STD024 (SDHC / altC) mitochondria (Zymoseptoria tritici, UniProt A0A1X7RQW2+F9X9V6+F9XH52+O42772); experiment: Succinate-quinone (SQR) SDHI sensitivity assay on purified mitochondria, 06STD024; format: biochemical; conditions: for RF (resistance factor), 06STD024 (SDHC / altC): IC50 ratio compared to IPO323 values; for IC50: mitochondria of field isolate 06STD024, mean of three ± SD
Description: as §1, §2

[5] = target: C_A84I-SQR (SDHC_A84I), IPO323_Flu21 mitochondria (Zymoseptoria tritici, UniProt F9X9V6+F9XH52+O42772, A84I); experiment: Succinate-quinone (SQR) SDHI sensitivity assay on purified mitochondria, IPO323_Flu21; format: biochemical; conditions: for RF (resistance factor), IPO323_Flu21 (SDHC_A84I): IC50 ratio compared to IPO323 values; for IC50: mitochondria of UV mutant IPO323_Flu21, mean of three ± SD
Description: as §1
(§3) Biomass production, mitochondrial extraction and purification were performed as described in [14]. Succinate: ubiquinone/DCPIP sensitivity tests were performed as described in [14] with minor modification. The different mitochondrial suspensions were adjusted to similar initial velocity (1 OD595nm hour^-1) and inhibitor concentrations ranged between 0.047nM and 50μM with uniform 4x dilution steps (11 concentrations + DMSO control). Calculated absorbance slopes (OD/min) were used for IC50 calculations using GraphPad Prism 6.07 software non-linear curve fitting against log inhibitor concentrations.

[6] = target: SQR (SDHC / altC) of IPO323 pTet::SDHC3 transformant, repressed (Zymoseptoria tritici, UniProt A0A1X7RQW2+F9X9V6+F9XH52+O42772); experiment: Succinate-quinone (SQR) SDHI sensitivity assay on purified mitochondria, IPO323 pTet::SDHC3 repressed; format: biochemical; conditions: for RF (resistance factor), pTet Repressed (SDHC / altC): IC50 ratio compared to IPO323 values; for IC50: IPO323 pTet::SDHC3 transformant grown in presence of 30 mg.L^-1 doxycycline, mean of three ± SD
Description: as §1, §2

[7] = target: SQR (SDHC) of D024 SDHC3 KO mitochondria (Zymoseptoria tritici, UniProt F9X9V6+F9XH52+O42772); experiment: Succinate-quinone (SQR) SDHI sensitivity assay on purified mitochondria, 06STD024 SDHC3 KO; format: biochemical; conditions: for RF (resistance factor), D024 SDHC3 KO (SDHC): IC50 ratio compared to IPO323 values; for IC50: mitochondria of 06STD024 ZtSDHC3 deletion mutant, mean of three ± SD
Description: as §1, §3

[8] = target: WT-SQR (SDHC), IPO323 mitochondria (Zymoseptoria tritici, UniProt F9X9V6+F9XH52+O42772); experiment: Succinate-quinone (SQR) SDHI sensitivity assay on purified mitochondria, IPO323; format: biochemical; conditions: mitochondria of IPO323; mean of three determinations ± SD; read-out: Succinate-quinone IC50, IPO323 (SDHC)
Description: as §1, §3

altC-SQR (altC) of D024 SDHC1 KO mitochondria, sequence (A0A1X7RQW2 36-181): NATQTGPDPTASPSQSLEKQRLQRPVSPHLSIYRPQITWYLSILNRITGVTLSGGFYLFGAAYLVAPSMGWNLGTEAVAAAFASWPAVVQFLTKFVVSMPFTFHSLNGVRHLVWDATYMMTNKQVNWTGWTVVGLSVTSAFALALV
altC-SQR (altC) of D024 SDHC1 KO mitochondria, sequence (O42772 20-297): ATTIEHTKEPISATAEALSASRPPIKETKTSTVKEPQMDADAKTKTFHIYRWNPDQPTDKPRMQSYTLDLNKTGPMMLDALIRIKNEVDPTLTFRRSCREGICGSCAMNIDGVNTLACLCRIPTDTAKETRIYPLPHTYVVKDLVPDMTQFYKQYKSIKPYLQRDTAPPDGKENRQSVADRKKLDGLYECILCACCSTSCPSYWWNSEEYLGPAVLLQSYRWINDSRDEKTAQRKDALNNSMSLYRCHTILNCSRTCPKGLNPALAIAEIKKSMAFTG
altC-SQR (altC) of D024 SDHC1 KO mitochondria, sequence (F9X9V6 1-193): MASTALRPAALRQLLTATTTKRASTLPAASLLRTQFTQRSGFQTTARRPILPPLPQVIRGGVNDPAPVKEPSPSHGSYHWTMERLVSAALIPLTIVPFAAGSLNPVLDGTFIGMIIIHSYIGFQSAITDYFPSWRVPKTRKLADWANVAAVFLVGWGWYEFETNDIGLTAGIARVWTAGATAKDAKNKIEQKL
altC-SQR (altC) of D024 SDHC1 KO mitochondria, sequence (F9WWR1 41-643 partner): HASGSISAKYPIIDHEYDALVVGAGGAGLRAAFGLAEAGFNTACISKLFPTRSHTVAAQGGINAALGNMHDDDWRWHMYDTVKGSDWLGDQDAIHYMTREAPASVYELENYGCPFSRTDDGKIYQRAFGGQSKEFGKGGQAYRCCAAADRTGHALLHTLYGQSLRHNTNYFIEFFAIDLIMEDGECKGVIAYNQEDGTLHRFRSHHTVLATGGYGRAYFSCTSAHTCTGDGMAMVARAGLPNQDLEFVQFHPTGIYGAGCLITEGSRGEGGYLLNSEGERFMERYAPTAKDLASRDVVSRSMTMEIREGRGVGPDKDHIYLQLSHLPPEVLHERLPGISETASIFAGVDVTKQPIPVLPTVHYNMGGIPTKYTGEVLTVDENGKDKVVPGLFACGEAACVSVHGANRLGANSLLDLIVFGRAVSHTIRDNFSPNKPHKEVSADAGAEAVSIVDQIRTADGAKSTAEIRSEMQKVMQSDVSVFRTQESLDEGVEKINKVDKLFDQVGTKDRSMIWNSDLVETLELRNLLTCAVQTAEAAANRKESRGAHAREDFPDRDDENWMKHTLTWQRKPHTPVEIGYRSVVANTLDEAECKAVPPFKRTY
SQR of 06STD024 (SDHC / altC) mitochondria, sequence (A0A1X7RQW2 36-181): as the sequence (A0A1X7RQW2 36-181) above
SQR of 06STD024 (SDHC / altC) mitochondria, sequence (O42772 19-297): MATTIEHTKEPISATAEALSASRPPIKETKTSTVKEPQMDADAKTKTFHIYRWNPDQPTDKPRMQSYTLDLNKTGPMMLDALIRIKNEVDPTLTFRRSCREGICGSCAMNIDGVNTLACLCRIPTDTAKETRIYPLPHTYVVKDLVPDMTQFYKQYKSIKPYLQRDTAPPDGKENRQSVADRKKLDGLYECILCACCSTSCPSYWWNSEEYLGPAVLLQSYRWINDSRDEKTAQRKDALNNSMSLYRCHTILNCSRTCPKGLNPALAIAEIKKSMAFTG
SQR of 06STD024 (SDHC / altC) mitochondria, sequence (F9X9V6 1-193): as the sequence (F9X9V6 1-193) above
SQR of 06STD024 (SDHC / altC) mitochondria, sequence (F9XH52 44-187): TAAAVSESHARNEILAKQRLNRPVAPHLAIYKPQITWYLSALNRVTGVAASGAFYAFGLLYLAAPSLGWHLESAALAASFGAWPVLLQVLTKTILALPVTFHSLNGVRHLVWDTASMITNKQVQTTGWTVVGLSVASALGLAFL
SQR of 06STD024 (SDHC / altC) mitochondria, sequence (F9WWR1 29-643 partner): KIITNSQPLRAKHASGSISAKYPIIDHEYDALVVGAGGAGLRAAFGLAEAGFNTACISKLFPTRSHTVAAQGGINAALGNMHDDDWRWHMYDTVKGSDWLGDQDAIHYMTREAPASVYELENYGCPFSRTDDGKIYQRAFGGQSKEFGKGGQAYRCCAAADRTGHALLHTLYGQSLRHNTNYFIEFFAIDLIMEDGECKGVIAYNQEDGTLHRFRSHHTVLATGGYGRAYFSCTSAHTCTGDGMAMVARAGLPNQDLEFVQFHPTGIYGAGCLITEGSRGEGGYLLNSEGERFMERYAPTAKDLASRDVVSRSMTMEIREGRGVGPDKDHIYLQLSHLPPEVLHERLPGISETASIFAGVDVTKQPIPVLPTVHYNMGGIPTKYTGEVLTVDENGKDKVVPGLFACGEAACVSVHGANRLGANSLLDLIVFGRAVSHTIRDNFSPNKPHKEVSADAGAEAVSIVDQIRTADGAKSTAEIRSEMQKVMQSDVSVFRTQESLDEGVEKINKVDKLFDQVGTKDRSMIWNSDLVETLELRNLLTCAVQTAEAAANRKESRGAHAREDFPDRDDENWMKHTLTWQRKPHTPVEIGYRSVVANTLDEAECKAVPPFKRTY
WT-SQR (SDHC), IPO323 mitochondria, sequence (F9WWR1 entry or part of it): as the sequence (F9WWR1 29-643 partner) above
WT-SQR (SDHC), IPO323 mitochondria, sequence (F9X9V6 entry or part of it): as the sequence (F9X9V6 1-193) above
WT-SQR (SDHC), IPO323 mitochondria, sequence (O42772 19-297): as the sequence (O42772 19-297) above
WT-SQR (SDHC), IPO323 mitochondria, sequence (F9XH52 entry or part of it): as the sequence (F9XH52 44-187) above

Row | Structure (SMILES) | RF (resistance factor), D024 SDHC1 KO (altC) [1] | IC50 [1] [nM] | RF (resistance factor), pTet Induced (SDHC / altC) [2] | IC50 [2] [nM] | EC50 ([3]; strain 06STD024) [nM] | EC50 ([3]; strain 07STGB009) [nM] | EC50 ([3]; strain 09STD041) [nM] | EC50 ([3]; strain 09STD053) [nM] | EC50 ([3]; strain 09STF011) [nM] | EC50 ([3]; strain 09STF037) [nM] | EC50 ([3]; strain 09STF112) [nM] | EC50 ([3]; strain 09STIR20.3) [nM] | EC50 ([3]; strain Flu21 (SDHC1_A84I)) [nM] | EC50 ([3]; strain IPO323) [nM] | EC50 ([3]; strain IPO94269) [nM] | EC50 ([3]; strain KO_SDHC1_T1) [nM] | EC50 ([3]; strain KO_SDHC1_T3) [nM] | EC50 ([3]; strain KO_SDHC3_T4) [nM] | EC50 ([3]; strain KO_SDHC3_T13) [nM] | EC50 ([3]; strain pTet::SDHC3_I78A_T1) [nM] | also measured
1 | CC(C)C1C2CCC1c1c(NC(=O)c3cn(C)nc3C(F)F)cccc12 (stereo not drawn) [Isopyrazam] | 2.9 | 2.4 ± 0.5 | 2.1 | 1.7 ± 0.4 | 108 | 75.5 | 116 | 56 | 109 | 46.1 | 66.2 | 112 | 785 | 46 | 72.8 | 332 | 293 | 83.7 | 96.7 | 60.4 | EC50 ([3]; strain pTet::SDHC3_I78A_T5): 120 nM; EC50 ([3]; strain pTet::SDHC3_I78A_T15): 81.1 nM; EC50 ([3]; strain pTet::SDHC3_I78A_T35): 17 nM; EC50 ([3]; strain pTet::SDHC3_T1): 195 nM; EC50 ([3]; strain pTet::SDHC3_T2): 284 nM; EC50 ([3]; strain pTet::SDHC3_T3): 175 nM; EC50 ([3]; strain pTet::SDHC3_T7): 233 nM; RF (resistance factor), 06STD024 (SDHC / altC) [4]: 3.3; IC50 [4]: 2.6 ± 0.6 nM; RF (resistance factor), IPO323_Flu21 (SDHC_A84I) [5]: 6.4; IC50 [5]: 5.2 ± 2.6 nM; RF (resistance factor), pTet Repressed (SDHC / altC) [6]: 1.5; IC50 [6]: 1.2 ± 0.3 nM; RF (resistance factor), D024 SDHC3 KO (SDHC) [7]: 0.7; IC50 [7]: 0.6 ± 0.2 nM; IC50 [8]: 0.8 ± 0.1 nM
2 | Cn1cc(C(=O)Nc2cccc3c2[C@@H]2CC[C@H]3C2=C(Cl)Cl)c(C(F)F)n1 (racemic) [Benzovindiflupyr] | 0.9 | 0.6 ± 0.05 | 0.8 | 0.5 ± 0.09 | 17 | 15 | 54 | 88 | 96 | 54 | 204 | 147 | 927 | 39 | 108 | 59 | 40 | 93 | 90 | 28 | EC50 ([3]; strain pTet::SDHC3_I78A_T5): 87 nM; EC50 ([3]; strain pTet::SDHC3_I78A_T15): 47 nM; EC50 ([3]; strain pTet::SDHC3_I78A_T35): 20 nM; EC50 ([3]; strain pTet::SDHC3_T1): 40 nM; EC50 ([3]; strain pTet::SDHC3_T2): 44 nM; EC50 ([3]; strain pTet::SDHC3_T3): 30 nM; EC50 ([3]; strain pTet::SDHC3_T7): 50 nM; RF (resistance factor), 06STD024 (SDHC / altC) [4]: 0.8; IC50 [4]: 0.5 ± 0.17 nM; RF (resistance factor), IPO323_Flu21 (SDHC_A84I) [5]: 1.4; IC50 [5]: 1 ± 0.2 nM; RF (resistance factor), pTet Repressed (SDHC / altC) [6]: 0.8; IC50 [6]: 0.5 ± 0.03 nM; RF (resistance factor), D024 SDHC3 KO (SDHC) [7]: 0.8; IC50 [7]: 0.6 ± 0.11 nM; IC50 [8]: 0.7 ± 0.2 nM
3 | Cn1cc(C(=O)Nc2ccccc2-c2cc(F)c(F)c(F)c2)c(C(F)F)n1 [Fluxapyroxad] | 0.7 | 3.1 ± 0.4 | 0.8 | 3.3 ± 0.6 | 83.2 | 72.2 | 142 | 132 | 119 | 110 | 152 | 295 | 818 | 102 | 121 | 438 | 361 | 216 | 144 | 115 | EC50 ([3]; strain pTet::SDHC3_I78A_T5): 265 nM; EC50 ([3]; strain pTet::SDHC3_I78A_T15): 145 nM; EC50 ([3]; strain pTet::SDHC3_I78A_T35): 79.5 nM; EC50 ([3]; strain pTet::SDHC3_T1): 148 nM; EC50 ([3]; strain pTet::SDHC3_T2): 129 nM; EC50 ([3]; strain pTet::SDHC3_T3): 102 nM; EC50 ([3]; strain pTet::SDHC3_T7): 197 nM; RF (resistance factor), 06STD024 (SDHC / altC) [4]: 0.8; IC50 [4]: 3.5 ± 0.3 nM; RF (resistance factor), IPO323_Flu21 (SDHC_A84I) [5]: 1.2; IC50 [5]: 5.1 ± 0.7 nM; RF (resistance factor), pTet Repressed (SDHC / altC) [6]: 1.1; IC50 [6]: 4.5 ± 1 nM; RF (resistance factor), D024 SDHC3 KO (SDHC) [7]: 0.8; IC50 [7]: 3.3 ± 0.8 nM; IC50 [8]: 4.3 ± 1.1 nM
